Data on 21 compounds can be found in patent US20180214428A1, “3-(1H-INDOL-2-YL)-1H-PYRAZOLO[3,4-B]PYRIDINES AND THERAPEUTIC USES THEREOF” (Samumed, LLC, priority 2015, published 2018).

Test [1] deals with primary human fibroblasts derived from IPF patients (LL29 cells). Nature of the test: Inhibition of the fibrotic process: αSMA staining in TGF-β1 treated LL29 fibroblasts. The format is cell-based. The settings on record: Homo sapiens, Fibroblast; for EC50: 96 h, TGF-β1 20 ng/mL, 4 days, % αSMA positive cells; for inhibition at 10 µM: given for EC50 of >10 μM, TGF-β1, αSMA, read-out: percent inhibition at 10 μM. Put shortly:
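IPF patient-derived LL29 fibroblasts in 1% FBS medium got compound (11-point, 10 μM to 1.87 nM, 0.1% DMSO) plus TGF-β1 20 ng/mL, 4 days at 37° C. αSMA-positive live cells (SYTOX-excluded) were imaged, normalized to TGF-β1 controls and fitted for EC50; % inhibition at 10 μM given when EC50 >10 μM.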

In test [2] the test system is Wnt activity (Sp5-Luc reporter gene, SW480 colon carcinoma cells). Briefly: Screening assay for Wnt activity: Sp5-Luc reporter gene assay in SW480 cells. Format: cell-based, human. The settings on record: Homo sapiens; for EC50: overnight incubation; for inhibition at 10 µM: given for EC50 of >10 μM, read-out: percent inhibition at 10 μM. Put shortly:
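SW480 cells stably transduced with a luciferase reporter driven by an Sp5 promoter of eight TCF/LEF sites were plated at 4,000 cells/well in 1% FBS medium. They were exposed overnight at 37° C to a 10-point 1:3 dilution series from 10 μM (0.1% DMSO). Luminescence was normalized to DMSO for four-parameter EC50, or percent inhibition at 10 μM.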

Test [3] concerns SW480 colon cancer cells. Nature of the test: Cell viability assay (CellTiter-Blue) in SW480 colon cancer cells. To be noted: Homo sapiens; for EC50: 96 h, four days, CellTiter-Blue; for inhibition at 10 µM: given for EC50 of >10 μM, read-out: percent inhibition at 10 μM. The format is cell-based, human. The gist of the method: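 Four-day viability readout in SW480 cells: compound at 0.0045–10 μM (1:3 series), DMSO controls in eight replicates, CellTiter-Blue fluorescence after ~3 h. Values are regression-derived EC50s, or percent inhibition at 10 μM when EC50 exceeds 10 μM.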

On to `Fc1cccc(-c2cccc3[nH]c(-c4n[nH]c5ncc(-c6cccnc6)cc45)cc23)c1` [Compound 2, 3-(4-(3-Fluorophenyl)-1H-indol-2-yl)-5-(pyridin-3-yl)-1H-pyrazolo[3,4-b]pyridine], for which the results for the 50% effective concentration (EC50) in test [1], in test [2] and in test [3] were 1.43 µM, 0.295 µM and more than 10 µM, respectively. Further, the inhibition at 10 µM in test [3] is 4%.

For the compound `CN(C)c1cncc(-c2cnc3[nH]nc(-c4cc5c(-c6cccc(F)c6)cccc5[nH]4)c3c2)c1` [Compound 5, 5-(3-(4-(3-Fluorophenyl)-1H-indol-2-yl)-1H-pyrazolo[3,4-b]pyridin-5-yl)-N,N-dimethylpyridin-3-amine], the EC50 is 0.95 µM in test [1], 0.672 µM in test [2] and 2.59 µM in test [3].

As for `CCCC(=O)Nc1cncc(-c2cnc3[nH]nc(-c4cc5c(-c6cccc(F)c6)cccc5[nH]4)c3c2)c1` [Compound 14, N-(5-(3-(4-(3-Fluorophenyl)-1H-indol-2-yl)-1H-pyrazolo[3,4-b]pyridin-5-yl)pyridin-3-yl)butyramide], the EC50 is more than 10 µM in test [1], 0.211 µM in test [2] and more than 10 µM in test [3]. Further, in test [3], the inhibition at 10 µM came out at 9.9%.

For the compound `Fc1cccc(-c2cccc3[nH]c(-c4n[nH]c5ncc(-c6ccncc6)cc45)cc23)c1` [Compound 15, 3-(4-(3-Fluorophenyl)-1H-indol-2-yl)-5-(pyridin-4-yl)-1H-pyrazolo[3,4-b]pyridine], the half-maximal effective concentration (EC50) in test [1] was 1.7 µM; in test [2], more than 10 µM; in test [3], more than 10 µM. For the same compound, the inhibition at 10 µM in test [2] stood at 26%; in test [3] it was 31.5%.

For `O=C(Nc1cncc(-c2cnc3[nH]nc(-c4cc5c(-c6cccc(F)c6)cccc5[nH]4)c3c2)c1)C1CCCCC1` [Compound 19, N-(5-(3-(4-(3-Fluorophenyl)-1H-indol-2-yl)-1H-pyrazolo[3,4-b]pyridin-5-yl)pyridin-3-yl)cyclohexanecarboxamide], the figures for the EC50 in test [1], in test [2] and in test [3] were more than 10 µM, 1.48 µM and more than 10 µM, respectively. For the same compound, the inhibition at 10 µM in test [1] is 28.9%; in test [3] it was 11.1%.

As to `Cc1ccncc1-c1cnc2[nH]nc(-c3cc4c(-c5ccc(F)cc5)cccc4[nH]3)c2c1` [Compound 27, 3-(4-(4-Fluorophenyl)-1H-indol-2-yl)-5-(4-methylpyridin-3-yl)-1H-pyrazolo[3,4-b]pyridine], the figures for the 50% effective concentration (EC50) in test [1], in test [2] and in test [3] were 1.61 µM, 3.53 µM and more than 10 µM, respectively. Besides, the inhibition at 10 µM in test [3] was 13.9%.

Regarding `CC(C)(C)C(=O)Nc1cncc(-c2cnc3[nH]nc(-c4cc5c(-c6ccc(F)cc6)cccc5[nH]4)c3c2)c1` [Compound 30, N-(5-(3-(4-(4-Fluorophenyl)-1H-indol-2-yl)-1H-pyrazolo[3,4-b]pyridin-5-yl)pyridin-3-yl)pivalamide], the half-maximal effective concentration (EC50) in test [1] is 4.16 µM; in test [2], 2.05 µM; in test [3], more than 10 µM. Further, in test [3], the inhibition at 10 µM came to 13.9%.

Regarding `O=C(Nc1cncc(-c2cnc3[nH]nc(-c4cc5c(-c6ccc(F)cc6)cccc5[nH]4)c3c2)c1)c1ccccc1` [Compound 32, N-(5-(3-(4-(4-Fluorophenyl)-1H-indol-2-yl)-1H-pyrazolo[3,4-b]pyridin-5-yl)pyridin-3-yl)benzamide], the half-maximal effective concentration (EC50) in test [1] was 4.95 µM; in test [2], 2.83 µM; in test [3] it was more than 10 µM. Moreover, the inhibition at 10 µM in test [3] amounted to 32.5%.

Consider `Fc1ccc(-c2cccc3[nH]c(-c4n[nH]c5ncc(-c6cncc(CN7CCCC7)c6)cc45)cc23)cc1` [Compound 35, 3-(4-(4-Fluorophenyl)-1H-indol-2-yl)-5-(5-(pyrrolidin-1-ylmethyl)pyridin-3-yl)-1H-pyrazolo[3,4-b]pyridine], for which the EC50 in test [1] turned out to be 2.35 µM; in test [2], 2.3 µM; in test [3] it was 4.83 µM.

With `Fc1ccc(-c2cccc3[nH]c(-c4n[nH]c5ncc(-c6cncc(CN7CCCCC7)c6)cc45)cc23)cc1` [Compound 36, 3-(4-(4-Fluorophenyl)-1H-indol-2-yl)-5-(5-(piperidin-1-ylmethyl)pyridin-3-yl)-1H-pyrazolo[3,4-b]pyridine], the EC50 in test [1] is 2.44 µM; in test [2], 3.66 µM; in test [3], more than 10 µM. The inhibition at 10 µM in test [3] stood at 59.2%.

In the case of `O=C(Nc1cncc(-c2cnc3[nH]nc(-c4cc5c(-c6ccc(F)cc6)cccc5[nH]4)c3c2)c1)C1CCC1` [Compound 41, N-(5-(3-(4-(4-Fluorophenyl)-1H-indol-2-yl)-1H-pyrazolo[3,4-b]pyridin-5-yl)pyridin-3-yl)cyclobutanecarboxamide], the EC50 was 1.16 µM in test [1], 0.543 µM in test [2] and 5.1 µM in test [3].

On to `Fc1ccc(-c2cccc3[nH]c(-c4n[nH]c5ncc(-c6cncnc6)cc45)cc23)cc1` [Compound 47, 3-(4-(4-Fluorophenyl)-1H-indol-2-yl)-5-(pyrimidin-5-yl)-1H-pyrazolo[3,4-b]pyridine], for which the half-maximal effective concentration (EC50) in test [1] is 4.96 µM; in test [2], 2.75 µM; in test [3] it was more than 10 µM. In addition, the inhibition at 10 µM in test [3] is 11.8%.

Turning to `Nc1cncc(-c2cnc3[nH]nc(-c4cc5c(-c6ccccc6F)cccc5[nH]4)c3c2)c1` [Compound 49, 5-(3-(4-(2-Fluorophenyl)-1H-indol-2-yl)-1H-pyrazolo[3,4-b]pyridin-5-yl) pyridin-3-amine], the EC50 in test [1] stood at 0.173 µM; in test [2], 0.099 µM; in test [3], 0.589 µM.

As to `CCNCc1cncc(-c2cnc3[nH]nc(-c4cc5c(-c6ccccc6F)cccc5[nH]4)c3c2)c1` [Compound 52, N-((5-(3-(4-(2-Fluorophenyl)-1H-indol-2-yl)-1H-pyrazolo[3,4-b]pyridin-5-yl)pyridin-3-yl)methyl)ethanamine], the EC50 stood at 0.991 µM in test [1], 5.84 µM in test [2] and 2.7 µM in test [3].

Regarding `CC(C)(C)CC(=O)Nc1cncc(-c2cnc3[nH]nc(-c4cc5c(-c6ccccc6F)cccc5[nH]4)c3c2)c1` [Compound 61, N-(5-(3-(4-(2-Fluorophenyl)-1H-indol-2-yl)-1H-pyrazolo[3,4-b]pyridin-5-yl)pyridin-3-yl)-3,3-dimethylbutanamide], the half-maximal effective concentration (EC50) in test [1] was 4.97 µM; in test [2], 2.17 µM; in test [3] it was more than 10 µM. The inhibition at 10 µM in test [3] turned out to be 25.2%.

As for `O=C(Nc1cncc(-c2cnc3[nH]nc(-c4cc5c(-c6ccccc6F)cccc5[nH]4)c3c2)c1)C1CCCC1` [Compound 66, N-(5-(3-(4-(2-Fluorophenyl)-1H-indol-2-yl)-1H-pyrazolo[3,4-b]pyridin-5-yl)pyridin-3-yl)cyclopentanecarboxamide], the EC50 was 6.53 µM in test [1], 1.15 µM in test [2] and more than 10 µM in test [3]. The inhibition at 10 µM in test [3] came out at 53.2%.

As to `c1cncc(-c2cnc3[nH]nc(-c4cc5c(-c6cccnc6)cccc5[nH]4)c3c2)c1` [Compound 74, 5-(Pyridin-3-yl)-3-(4-(pyridin-3-yl)-1H-indol-2-yl)-1H-pyrazolo[3,4-b]pyridine], the EC50 in test [1] turned out to be 0.41 µM; in test [2], 0.57 µM; in test [3] it was 3.52 µM.

With `CC(C)(C)C(=O)Nc1cncc(-c2cnc3[nH]nc(-c4cc5c(-c6cccnc6)cccc5[nH]4)c3c2)c1` [Compound 78, N-(5-(3-(4-(Pyridin-3-yl)-1H-indol-2-yl)-1H-pyrazolo[3,4-b]pyridin-5-yl)pyridin-3-yl)pivalamide], the EC50 was more than 10 µM in test [1], 0.634 µM in test [2] and 1.73 µM in test [3]. The inhibition at 10 µM in test [1] came to 24.2%.

For the compound `CC(C)Nc1cncc(-c2cnc3[nH]nc(-c4cc5c(-c6cccnc6)cccc5[nH]4)c3c2)c1` [Compound 81, N-Isopropyl-5-(3-(4-(pyridin-3-yl)-1H-indol-2-yl)-1H-pyrazolo[3,4-b]pyridin-5-yl)pyridin-3-amine], the 50% effective concentration (EC50) came to 1.41 µM in test [1], 0.45 µM in test [2] and 3.7 µM in test [3].

Consider `c1cncc(-c2cccc3[nH]c(-c4n[nH]c5ncc(-c6cncc(CN7CCCCC7)c6)cc45)cc23)c1` [Compound 84, 5-(5-(Piperidin-1-ylmethyl)pyridin-3-yl)-3-(4-(pyridin-3-yl)-1H-indol-2-yl)-1H-pyrazolo[3,4-b]pyridine], for which the results for the concentration for a half-maximal effect (EC50) in test [1], in test [2] and in test [3] were 5.97 µM, more than 10 µM and 8.47 µM, respectively. Further, the inhibition at 10 µM in test [2] came out at 48.5%.

For `O=C(Nc1cncc(-c2cnc3[nH]nc(-c4cc5c(-c6cccnc6)cccc5[nH]4)c3c2)c1)C1CCC1` [Compound 89, N-(5-(3-(4-(Pyridin-3-yl)-1H-indol-2-yl)-1H-pyrazolo[3,4-b]pyridin-5-yl)pyridin-3-yl)cyclobutanecarboxamide], the EC50 in test [1] turned out to be 0.147 µM; in test [2], 0.23 µM; in test [3], 0.565 µM.
